Laboratory results as given in patent US12577227B2, “WDR5 inhibitors and modulators” (Vanderbilt University, priority 2019, dated 2026).

Tested on: MV4:11 human cancer cell lines
Test: Cellular viability / anti-proliferative activity (CellTiter-Glo)
Assay type: cell-based
Settings: MV4-11, 120 h, MV-4-11 cells, 5 day protocol, mean of minimum two replicates, read-out: GI50 on cellular proliferation of MV4:11 human cancer cell lines
In short: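 MV-4-11 cells in IMDM/10% FBS, 200 cells per well, exposed 5 days to 22 two-fold dilutions from 30 μM (0.3% DMSO final). Viability read by CellTiter-Glo luminescence; GI50 from sigmoidal dose-response, mean of at least two replicates.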

SMILES | GI50
Cc1ccnc(CN2C[C@@H](C)Oc3c(cc(Cn4ccnc4C)cc3-c3cn(C)nc3C(F)(F)F)C2=O)c1 [Example 40, (R)-2-Methyl-7-((2-methyl-1H-imidazol-1-yl)methyl)-9-(1-methyl-3-(trifluoromethyl)-1H-pyrazol-4-yl)-4-((4-methylpyridin-2-yl)methyl)-3,4-dihydrobenzo[f][1,4]oxazepin-5(2H)-one] | 529 nM
COc1cc(Cn2c(C)nc3c(-c4ccc(F)cc4C)cc(CNC4=NCCN4)cc3c2=O)cc(OC)c1 [Example 21, 6-(((4,5-Dihydro-1H-imidazol-2-yl)amino)methyl)-3-(3,5-dimethoxybenzyl)-8-(4-fluoro-2-methylphenyl)-2-methylquinazolin-4(3H)-one] | 194 nM
COc1ccc2nccc(N3CCOc4c(cc(Cn5ccnc5C)cc4-c4cn(C)nc4C(F)(F)F)C3=O)c2c1 [Example 58, 4-(6-Methoxyquinolin-4-yl)-7-((2-methyl-1H-imidazol-1-yl)methyl)-9-(1-methyl-3-(trifluoromethyl)-1H-pyrazol-4-yl)-3,4-dihydrobenzo[f][1,4]oxazepin-5(2H)-one] | 77 nM

Second part, the compound after the results:

GI50 | SMILES
39 nM | CCn1cc(-c2cc(Cn3ccnc3C)cc3c2OCCN([C@H]2CCOc4ccc(OC)cc42)C3=O)c(C(F)(F)F)n1 [Example 64, (S)-9-(1-ethyl-3-(trifluoromethyl)-1H-pyrazol-4-yl)-4-(6-methoxychroman-4-yl)-7-((2-methyl-1H-imidazol-1-yl)methyl)-3,4-dihydrobenzo[f][1,4]oxazepin-5(2H)-one]
321 nM | CCc1cc(OC)c2nccc(N3CCOc4c(cc(Cn5ccnc5)cc4-c4cn(C)nc4C(F)(F)F)C3=O)c2c1 [Example 67, 7-((1H-imidazol-1-yl)methyl)-4-(6-ethyl-8-methoxyquinolin-4-yl)-9-(1-methyl-3-(trifluoromethyl)-1H-pyrazol-4-yl)-3,4-dihydrobenzo[f][1,4]oxazepin-5(2H)-one]
